Experimental data: publication PMC11554305, “Functional identification of soluble uric acid as an endogenous inhibitor of CD38” (eLife, 2024)

Assays:
[1] = target: T1, poly(ADP-ribose) polymerase (PARP) (Homo sapiens, UniProt P09874); experiment: PARP activity (colorimetric kit); assay type: biochemical; settings: Figure 3—figure supplement 2C
T1 construct: purchased R&D Systems 4677-096-K
Procedure: (§1) The activities of NAMPT and PARP were measured using commercial kits, HT Universal Colorimetric PARP Assay Kit, and CycLex NAMPT Colorimetric Assay Kit Ver.2. The solutions of ligands were freshly prepared (pH was adjusted to 7.4) and were immediately used for enzyme assays.

A549 cells = experiment: Intracellular NAD+ assay in A549 cells; assay type: cell-based, human; settings: sUA 100 to 500 μM, 20 hr
Procedure: A549 cells were seeded in 24-well plates for NAD^+ assay. Briefly, when the confluence reached 80%, the culture medium in each well was discarded, and the cells were washed twice with sterile PBS and incubated in RPMI-1640 medium containing 1% FBS in the presence or absence of sUA (from 100 to 500 μM) for 20 hr. Then, the cells were washed twice with sterile PBS, after the second washing, PBS was completely removed and 100 μL 5% ice-cold perchloric acid (PCA) was added into each well. The plate was kept on ice for 2 hr, then cell samples were collected and centrifuged at 15,000 rpm, 4°C for 10 min. The supernatant was used for subsequent handling and measurement (see LC-MS/MS analysis).
As mentioned above, samples (cells, tissues, blood, or reaction buffer) were treated with ice-cold PCA, after extraction and centrifugation, the collected supernatant was appropriately diluted in 5% ice-cold PCA when applicable, and then was vortexed for 30 s and centrifuged at 15,000 rpm, 4°C for 5 min. […] All the samples after handling were immediately analyzed in this study without freezing and thawing.
The LC-MS/MS system consisted of a triple quadrupole LCMS-8050 (Shimadzu) and an LC-30A system (Shimadzu). […] NAD^+ and NMN were measured independently in this study, as their peaks were hardly separated within a short time.

[2] = target: T2, nicotinamide phosphoribosyltransferase (NAMPT) (Homo sapiens, UniProt P43490); experiment: NAMPT activity (colorimetric kit); assay type: biochemical; settings: Figure 3—figure supplement 2A
T2 construct: purchased MBL CY-1251V2
Procedure: as §1

primed THP-1 cells = experiment: Canonical inflammasome assay, IL-1β release in primed THP-1 cells; assay type: cell-based, human
Procedure: Human IL-1β, mouse IL-1β, IL-6, IL-18, TNF-α, and CXCL1 levels were measured according to the protocols provided by the manufacturer. Serum samples were diluted before ELISA when applicable. In this study, all the samples were frozen after collection and thawed before ELISA.
Naïve THP-1 cells were primed with 0.5 μM phorbol 12-myristate 13-acetate for 3 hr the day before stimulation. Primed THP-1 cells were pre-incubated in RPMI-1640 medium in the presence or absence of sUA (5 or 10 mg/dL) for 2 hr. The cells were then washed twice with sterile PBS, and were stimulated with MSU crystals, cLPS, zymosan, and ATP in serum-free RPMI-1640 medium for 4 hr.
After stimulation, the culture medium was collected and centrifuged at 3000 rpm, 4°C for 5 min, the supernatant was collected and stored at –30°C until ELISA.

primed WT BMDMs = experiment: sUA uptake assay in primed WT BMDMs; assay type: cell-based, mouse; settings: sUA 100, 200 or 500 μM, 2 or 15 hr
Procedure: WT BMDMs were primed with 100 ng/mL ultrapure LPS for 4 hr. Then, the cells were washed twice with sterile PBS, and maintained in RPMI-1640 medium containing sUA (100, 200, or 500 μM) for 2 or 15 hr. Subsequently, the cells were washed twice with ice-cold sterile PBS to terminate uptake, 100 μL 5% ice-cold PCA was added into each well. The plates were placed on ice for 2 hr, then cell samples were collected and centrifuged at 15,000 rpm, 4°C for 10 min. The supernatant was used for subsequent handling and measurement (see LC-MS/MS analysis).

[3] = test system: bone marrow-derived macrophages (BMDMs); experiment: Extracellular NMN degradation in primed BMDMs; assay type: cell-based, mouse; settings: WT BMDMs, not in CD38 KO BMDMs; NMN 100 μM, 6 hr
Procedure: Bone marrow cells were isolated from 10- to 12-week-old WT or CD38 KO mice (both male and female) by washing the marrow cavity with sterile PBS. The collected bone marrow cells were filtered by 70 μm strainers and then centrifuged at 1000 rpm, 4°C for 5 min. The cell pellet was resuspended in 2 mL red blood cell (RBC) lysis buffer for 30 s, then 8 mL complete RPMI-1640 medium (10% FBS, 1% penicillin/streptomycin, and 50 μM 2-mercaptoethanol) was added to terminate the lysis. After 5 min centrifugation at 1000 rpm, 4°C, the cells were resuspended in fresh complete RPMI-1640 medium and maintained for 4 hr in an incubator. Adherent cells were discarded, whereas non-adherent cells were cultured in complete RPMI-1640 medium containing 20 ng/mL M-CSF. After 3-day differentiation, the medium was replaced with fresh complete RPMI-1640 medium containing 20 ng/mL M-CSF. On the 7th day, BMDMs were collected for subsequent experiments. BMDMs were primed with 100 ng/mL ultrapure LPS for 4 hr for canonical inflammasome assay. For metabolic assay of NMN, BMDMs were primed with 100 ng/mL ultrapure LPS for 8 hr to induce higher protein expression of CD38.
WT and CD38 KO BMDMs were primed with 100 ng/mL ultrapure LPS for 8 hr, then the cells were washed twice with sterile PBS. Primed BMDMs were maintained in RPMI-1640 medium supplemented with 100 μM NMN in the presence or absence of sUA. […]

neutrophils = test system: neutrophils; design: method as in Ma et al., 2022; settings: sUA 595 μM; ref Ma et al., 2022; cited from earlier work

T2 sequence (P43490 whole entry): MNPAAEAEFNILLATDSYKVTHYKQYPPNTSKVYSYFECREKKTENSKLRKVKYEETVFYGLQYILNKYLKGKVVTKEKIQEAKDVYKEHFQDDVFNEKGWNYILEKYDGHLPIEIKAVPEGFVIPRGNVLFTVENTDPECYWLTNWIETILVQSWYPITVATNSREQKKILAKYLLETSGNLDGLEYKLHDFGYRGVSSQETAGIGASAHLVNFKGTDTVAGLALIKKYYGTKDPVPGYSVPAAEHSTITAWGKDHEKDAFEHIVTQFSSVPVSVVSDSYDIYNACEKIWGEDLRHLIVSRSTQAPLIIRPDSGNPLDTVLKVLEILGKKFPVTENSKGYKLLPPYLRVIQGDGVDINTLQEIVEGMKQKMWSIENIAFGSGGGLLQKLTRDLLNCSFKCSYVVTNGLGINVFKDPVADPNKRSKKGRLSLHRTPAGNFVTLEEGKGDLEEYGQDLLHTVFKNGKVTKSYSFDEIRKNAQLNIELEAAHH
T1 sequence (P09874 whole entry): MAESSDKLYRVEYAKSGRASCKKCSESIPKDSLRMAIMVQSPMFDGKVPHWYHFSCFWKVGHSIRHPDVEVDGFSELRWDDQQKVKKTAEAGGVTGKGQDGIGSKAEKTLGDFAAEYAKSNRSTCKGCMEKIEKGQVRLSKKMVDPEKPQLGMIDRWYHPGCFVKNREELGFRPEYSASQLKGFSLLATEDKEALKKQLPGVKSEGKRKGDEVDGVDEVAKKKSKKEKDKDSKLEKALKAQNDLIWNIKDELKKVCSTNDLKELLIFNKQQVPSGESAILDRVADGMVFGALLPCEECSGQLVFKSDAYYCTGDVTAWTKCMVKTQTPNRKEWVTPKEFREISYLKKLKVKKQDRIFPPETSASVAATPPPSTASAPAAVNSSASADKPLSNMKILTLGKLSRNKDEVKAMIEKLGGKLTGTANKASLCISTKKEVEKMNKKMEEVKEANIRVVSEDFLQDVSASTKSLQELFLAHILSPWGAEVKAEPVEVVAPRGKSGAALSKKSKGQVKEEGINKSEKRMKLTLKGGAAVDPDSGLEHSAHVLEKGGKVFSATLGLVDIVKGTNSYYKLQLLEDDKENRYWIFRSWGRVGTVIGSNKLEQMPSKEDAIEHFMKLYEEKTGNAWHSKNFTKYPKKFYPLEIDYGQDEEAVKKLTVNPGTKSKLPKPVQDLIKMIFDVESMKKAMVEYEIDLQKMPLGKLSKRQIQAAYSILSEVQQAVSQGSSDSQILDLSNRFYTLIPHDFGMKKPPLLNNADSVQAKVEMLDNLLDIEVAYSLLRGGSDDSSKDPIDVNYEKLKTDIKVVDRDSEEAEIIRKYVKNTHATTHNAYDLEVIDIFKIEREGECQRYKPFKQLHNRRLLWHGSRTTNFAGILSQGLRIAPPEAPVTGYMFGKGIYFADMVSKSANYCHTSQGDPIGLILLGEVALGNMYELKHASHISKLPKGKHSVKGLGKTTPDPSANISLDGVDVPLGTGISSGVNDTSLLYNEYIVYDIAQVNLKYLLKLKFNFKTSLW

SMILES: O=c1[nH]c(=O)c2[nH]c(=O)[nH]c2[nH]1 [sUA, uric acid]
- Effect on PARP activity [1]: without affecting the activities
- Intracellular NAD+ (A549 cells): boosted intracellular NAD^+
- Effect on NAMPT activity [2]: without affecting the activities
- Induction of IL-1β release by sUA itself (primed THP-1 cells): did not induce IL-1β release
- IL-1β release after stimulation (primed THP-1 cells; sUA pre-incubation 2 hr, then MSU crystals, cLPS, zymosan or ATP): moderately limited IL-1β release
- sUA uptake (primed WT BMDMs): very low
- Extracellular NMN availability [3]: increased extracellular NMN availability
- Neutrophil response to IL-8 (neutrophils): inhibits neutrophils in response to IL-8
